Results as given in EPA's ToxValDB 9.5 (doi:10.2903/j.efsa.2008.139r).

Columns and labels:
[1] = tested on: Tagia sp.; settings: acute; duration: 14 days; mortality
[2] = tested on: Lepomis macrochirus; settings: acute; mortality
[3] = tested on: Daphnia magna; settings: chronic/long-term
[4] = tested on: Oncorhynchus mykiss; settings: chronic/long-term
[5] = tested on: Rattus norvegicus
[6] = tested on: Canidae; settings: oral, Dog Other, organ weight
[7] = tested on: Perdix sp.; settings: acute; oral; unspecified; mortality
[8] = tested on: Colinus virginianus
[9] = tested on: Oryctolagus sp.; settings: developmental; development
[10] = tested on: Apis mellifera; settings: acute, mortality
[11] = tested on: Typhlodromus pyri; experiment: LR50; higher = less toxic; settings: not reported; mortality

## CCO/N=C(\CC)C1=C(O)CC(c2c(C)cc(C)cc2C)CC1=O (stereo unspecified) [Tralkoxydim]
[1]
  LC50: > 1000 mg/kg
[2]
  LC50: > 6.1 mg/L
[3]
  NOEC: 2.1 mg/L
[4]
  NOEC: 4.6 mg/L
[5]; acute, oral, mortality
  LD50: 934 mg/kg-day
[5]; developmental, development
  NOAEL: 1 mg/kg-day
[5]; reproduction developmental, body weight
  NOAEL: 18.2 mg/kg-day
[6]; chronic, duration: 1 years
  NOAEL: 0.5 mg/kg-day
[6]; subchronic, duration: 90 days
  NOAEL: 0.5 mg/kg-day
[7]
  LD50: 2020 mg/kg-day
[8]; acute, oral, diet, mortality
  LC50: 1020 mg/kg-day
[8]; reproduction developmental
  NOEC: 14.3 mg/kg-day
[9]
  NOEC: 20 mg/kg-day
[10]; dermal
  LD50: > 100 µg/piece
[10]; oral, unspecified
  LD50: > 117 µg/piece
[11]
  LR50: > 450 g/ha
